Source: patent US20210162078A1, “METHOD FOR DIAGNOSIS OF DO[…] MOVEMENT DISORDERS” (LikeMinds, Inc., priority 2018, published 2021)
Read-outs that look alike come from different tables or passages of the source.

What was measured:
[1] = target: T1, DAT (Homo sapiens, UniProt Q01959); test: Binding selectivity of DaT2020 for DAT over SERT
Target sequence in this assay (Q01959 whole entry, species assumed): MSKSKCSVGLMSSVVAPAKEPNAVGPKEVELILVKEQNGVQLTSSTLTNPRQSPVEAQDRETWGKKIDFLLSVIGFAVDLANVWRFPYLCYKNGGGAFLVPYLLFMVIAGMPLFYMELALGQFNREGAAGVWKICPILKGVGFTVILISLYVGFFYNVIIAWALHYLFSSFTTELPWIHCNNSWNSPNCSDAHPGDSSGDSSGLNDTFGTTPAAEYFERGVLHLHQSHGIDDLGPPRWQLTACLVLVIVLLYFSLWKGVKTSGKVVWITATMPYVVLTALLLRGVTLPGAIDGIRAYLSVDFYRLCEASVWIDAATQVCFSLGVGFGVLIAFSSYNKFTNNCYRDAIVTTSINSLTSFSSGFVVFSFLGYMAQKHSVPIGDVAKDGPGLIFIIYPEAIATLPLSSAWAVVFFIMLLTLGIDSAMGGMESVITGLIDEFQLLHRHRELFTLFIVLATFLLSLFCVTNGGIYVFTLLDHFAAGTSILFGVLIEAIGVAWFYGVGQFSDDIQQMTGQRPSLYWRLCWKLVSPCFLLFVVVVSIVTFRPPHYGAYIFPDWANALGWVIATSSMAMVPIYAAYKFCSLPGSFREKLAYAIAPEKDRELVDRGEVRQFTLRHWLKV

[2] = Clinical safety and radiation dose of radiolabeled DaT2020 bolus injection; assay type: in vivo, human
Description: Such buffers include, but are not limited to, ethanol (solvent), sodium hydroxide and acetic acid (pH adjustment), sodium chloride injection (isotonic vehicle). The formulation to be administered as a bolus injection has been shown in sponsored clinical trials to be safe containing a dose of up to about 8 mCi to 10 mCi of radiolabeled DaT2020 and delivered in a total volume of about 2.5 mL to about 5 mL.
The radioactivity of the dose of radiolabeled DaT2020 or of its radiolabeled derivatives, can be determined one with skill in the art, e.g. by a nuclear medicine imaging technician. In addition, the total radioactivity of the actual administered dose is of relevance and not the volume administered to achieve this dose. The exact radioactive dose of the tracer administered is determined by calculating the difference between the radioactivity in the syringe and delivery system before and after injection. After the dose is delivered, the syringe is filled with a volume of saline equal to the administered dose volume. The syringe content is recounted under the same conditions as used to determine the dose; separately. […]

[3] = target: T2, DAT in the striatum (Homo sapiens, UniProt Q01959); test: DaT2020 SPECT study: striatal binding ratio over time after IV injection; assay type: in vivo; settings: for specific binding ratio reached, as % of average stable binding ratio: within six min after injection
T2 construct: from tissue; host or cells: striatum of living subjects (in vivo SPECT)
Description: The results obtained from administering lower doses of radiolabeled_DaT2020 (5.3 mCi) were modeled from the data obtained using the 8 mCi dose and a 3-headed camera. Within six min after injection of radiolabeled DaT2020, the specific binding ratios of Parkinson's patients and the healthy volunteer group had reached 90% and 74% of the average stable binding ratio of 1.32 and 1.64, respectively, during the previously determined imaging time of 15 min to 45 min post-administration. In contrast, DaTscan takes least 180 min to reach a stable binding ratio.
The subjects used in the study were healthy volunteers (HV) and those with at least mild Parkinson's disease (PD) (Seibyl at al. (2008) “ALTROPANE SPECT in Parkinson's disease patients and healthy controls” (poster). Abs. Movement Dis. Soc. 12th Internat. Con. Parkinson's Disease and Movement Disorders). All subjects were evaluated by a clinician using validated measures to determine if there is evidence of a movement disorder. Any subject using an anti-parkinsonian medication abstained from its use for at least 12 hr prior to the movement disorder evaluation. […]
ROIs were determined using data obtained from about 24 min to 30 min after dose administration, with individual subject ROI sampling of the left and right caudate and putamen and an occipital background region. […]
To determine the striatal binding ratios (SBR) extract total counts within the ROI, total volume, and count density (counts/voxel) from each scan. SBR is calculated as the density of counts (counts per voxel per min) in the striatal region minus the counts in the occipital cortex (background) divided by the density of counts in the occipital background region. The mean striatal SBR scores are calculated as the mean of the left and right caudate and putamen SBR scores.
DaT2020 SBR data over time were abstracted by reading the graphics showing SBR over time for PD patients (Seibyl and Merck, ibid., Appendix 1) (the first scan of two was read), and in Appendix 2 for healthy volunteers (Seibyl and Merck, ibid., Appendix 2).

[4] = target: T2, DAT in the striatum; settings: imaging time 15 min to 45 min post-administration, cited from earlier work
[5] = target: T2, DAT in the striatum; settings: cited from earlier work; for time after injection to stable binding to striatal DAT: DaTscan, IV injection, SPECT
[6] = target: T1, DAT; design: host or cells: brain tissue in vivo; settings: after binding to transporters other than DAT; package insert; cited from earlier work
Target sequence in this assay (Q01959 whole entry): as the sequence (Q01959 whole entry, species assumed) above

[7] = target: T1, DAT; settings: DAT sites per one SERT site; package insert; cited from earlier work
Target sequence in this assay (Q01959 whole entry, species assumed): as above

T2 sequence (Q01959 whole entry): as the sequence (Q01959 whole entry, species assumed) above

Compound	binding selectivity for DAT over SERT [1]	safety of bolus injection in sponsored clinical trials ([2]; dose of up to about 8 mCi to 10 mCi, total volume about 2.5 mL to about 5 mL)	effective dose ([2]; for 5 mCi of radiolabeled DaT2020)	specific binding ratio reached, as % of average stable binding ratio ([3]; Parkinson's patients)	specific binding ratio reached, as % of average stable binding ratio ([3]; healthy volunteer group)	time after administration at which stable binding to DAT occurs ([3]; radiolabeled DaT2020, IV injection, SPECT)	average stable binding ratio (SBR) ([4]; Parkinson's patients)	average stable binding ratio (SBR) ([4]; healthy volunteer group)	time after injection to stable binding to striatal DAT [5]	time after injection to stable binding to striatal DAT ([5]; listed as [^123I]-FP-CIT)	time for which binding remains stable ([5]; after reaching stable binding 3 hr post-injection)	DaTscan available for DAT transporter binding in the brain tissue [6]	DAT sites bound for every one SERT site [7]
COC(=O)[C@H]1[C@@H](c2ccc(F)cc2)C[C@@H]2CC[C@H]1N2C/C=C/I [DaT2020, E-2β-carbomethoxy-3β-(4-fluorophenyl)-N-(3-iodo-E-allyl) nortropane]	28 fold	safe	approximately 4.3 mSv	90%	74%	15 min	1.32	1.64	–	–	–	–	–
COC(=O)[C@H]1[C@@H](c2ccc(I)cc2)C[C@@H]2CC[C@H]1N2CCCF [DaTscan, N-ω-fluoropropyl-2β-carbomethoxy-3β-(4-iodophenyl) nortropane]	–	–	–	–	–	–	–	–	3 h	3 h	3 h	about 7%	two to three
